In patent US12233161B1, “Lipids and lipid nanoparticle formulations” (LONGUIDE BIOPHARMA CORPORATION, priority 2024, dated 2025):

Legend:
mice = experiment: In vivo delivery of FLuc-mRNA lipid nanoparticles in mice, in vivo imaging (IVIS)
In short: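 Mice (n=3) received about 75 μL FLuc-mRNA LNP per mouse intramuscularly (rectus femoris), intravenously (tail vein), intraperitoneally or subcutaneously (back). After injection, D-luciferin (200 μL, 15 mg/mL) was given i.p. 10-15 min before IVIS imaging.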

[1] = Particle size and PDI of nucleic acid lipid nanoparticle preparations by dynamic light scattering; format: physicochemical
Method: The 7.5 μL nucleic acid lipid nanoparticle solution (containing approximately 0.04 mg/mL mRNA) was taken and added with 200 μL ultrapure water, mixed by gentle blowing using a pipette tip, and the particle size of the nanopreparation was detected by dynamic lightscattering (DLS) using a Malvern Dynamic Light Scattering Instrument (Malvern Instruments Ltd., ZEN3700, UK).
27.5 μL nucleic acid lipid nanoparticle solution (containing about 0.04 mg/mL mRNA) was taken and added with 200 μL ultrapure water. A pipette tip was used to gently blow the sample and mix well. The particle size of the nanopreparation was detected by Malvern Dynamic Light Scattering Instrument (Malvern Instruments Ltd., ZEN3700, UK). After the detection, the sample was recovered to an EP tube, and 600 μL of ultrapure water was added, gently blown with a pipette tip, and the potential of the nanopreparation was measured by a Malvern particle size meter.

[2] = DMG-PEG2000:DSPC:Chol:Lipid 1.00:16.00:48.00:35.00, N/P 18, IV, liver
[3] = DMG-PEG2000:DSPC:Chol:Lipid 1.00:16.00:48.00:35.00, N/P 18, IV, lung
[4] = DMG-PEG2000:DSPC:Chol:Lipid 1.00:16.00:48.00:35.00, N/P 18, IV, spleen
[5] = DMG-PEG2000:DSPC:Chol:Lipid 1.50:16.00:17.50:65.00, N/P 45, IV, liver
[6] = DMG-PEG2000:DSPC:Chol:Lipid 1.50:16.00:17.50:65.00, N/P 45, IV, lung
[7] = DMG-PEG2000:DSPC:Chol:Lipid 1.50:16.00:17.50:65.00, N/P 45, IV, spleen
[8] = DMG-PEG2000:DSPC:Chol:Lipid 1.00:16.00:48.00:35.00, N/P 18, mRNA LNP
[9] = DMG-PEG2000:DSPC:Chol:Lipid 1.50:4.00:69.50:25.00, N/P 18, mRNA LNP
[10] = DMG-PEG2000:DSPC:Chol:Lipid 1.50:16.00:17.50:65.00, N/P 45, mRNA LNP
[11] = DMG-PEG2000:DSPC:Chol:Lipid 1.77:14.07:49.16:35.00, N/P 30, mRNA LNP
[12] = DMG-PEG2000:DSPC:Chol:Lipid 1.40:11.15:38.95:48.50, N/P 18, IM, whole body scan
[13] = DMG-PEG2000:DSPC:Chol:Lipid 1.40:11.15:38.95:48.50, N/P 18, IV, whole body scan
[14] = DMG-PEG2000:DSPC:Chol:Lipid 1.40:11.15:38.95:48.50, N/P 18, mRNA LNP
[15] = DMG-PEG2000:DSPC:Chol:Lipid 1.40:11.15:38.95:48.50, N/P 30, mRNA LNP
[16] = IM, DMG-PEG2000:DSPC:Chol:compound 1.40:11.15:38.95:48.50, N/P 30, Fluc-mRNA
[17] = IV, body, DMG-PEG2000:DSPC:Chol:compound 1.40:11.15:38.95:48.50, N/P 30, Fluc-mRNA
[18] = IV, liver, DMG-PEG2000:DSPC:Chol:compound 1.40:11.15:38.95:48.50, N/P 30
[19] = IV, liver, DMG-PEG2000:DSPC:Chol:compound 1.40:11.15:38.95:48.50, N/P 30, Fluc-mRNA
[20] = IV, lung, DMG-PEG2000:DSPC:Chol:compound 1.40:11.15:38.95:48.50, N/P 30
[21] = IV, lung, DMG-PEG2000:DSPC:Chol:compound 1.40:11.15:38.95:48.50, N/P 30, Fluc-mRNA
[22] = IV, spleen, DMG-PEG2000:DSPC:Chol:compound 1.40:11.15:38.95:48.50, N/P 30
[23] = IV, spleen, DMG-PEG2000:DSPC:Chol:compound 1.40:11.15:38.95:48.50, N/P 30, Fluc-mRNA
[24] = DMG-PEG2000:DSPC:Chol:compound 1.40:11.15:38.95:48.50, N/P 30
[25] = DMG-PEG2000:DSPC:Chol:compound 1.40:11.15:38.95:48.50, N/P 20
[26] = DMG-PEG2000:DSPC:Chol:Lipid 1.40:11.15:38.95:48.50, N/P 60, mRNA LNP
[27] = DMG-PEG2000:DSPC:Chol:Lipid 1.77:14.07:49.16:35.00, N/P 60, mRNA LNP

## CCCCCCCCCCCCNC(=O)C(O)CN(CCCN(CCCCCCO)CCCN(CC(O)C(=O)NCCCCCCCCCCCC)CC(O)C(=O)NCCCCCCCCCCCC)CC(O)C(=O)NCCCCCCCCCCCC (stereo not drawn) [Compound L0274]
mice; DMG-PEG2000:DSPC:Chol:Lipid 1.00:16.00:48.00:35.00, N/P 18, IV, body
  IVIS: 3.12 × 10^8
mice; [2]
  % of organ targeting: 29.22%
  IVIS: 4.76 × 10^7
mice; [3]
  % of organ targeting: 8.16%
  IVIS: 1.33 × 10^7
mice; [4]
  % of organ targeting: 62.62%
  IVIS: 1.02 × 10^8
mice; DMG-PEG2000:DSPC:Chol:Lipid 1.50:4.00:69.50:25.00, N/P 18, IM, whole body scan
  IVIS: 6.20 × 10^6
mice; DMG-PEG2000:DSPC:Chol:Lipid 1.50:16.00:17.50:65.00, N/P 45, IV, body
  IVIS: 1.52 × 10^8
mice; [5]
  % of organ targeting: 1.10%
  IVIS: 4.17 × 10^6
mice; [6]
  % of organ targeting: 84.18%
  IVIS: 3.19 × 10^8
mice; [7]
  % of organ targeting: 14.72%
  IVIS: 5.58 × 10^7
mice; DMG-PEG2000:DSPC:Chol:Lipid 1.77:14.07:49.16:35.00, N/P 30, IM, whole body scan
  IVIS: 1.23 × 10^7
mice; certain formulations, Table 2
  in vivo delivery efficiency as compared to the benchmark compound SM102: superior in vivo delivery efficiency
  tissue-targeting specificity (lung vs spleen depending on molar percentage of compound): strong tissue-targeting specificity
[1]; [8]
  PDI: 0.15 ± 0.01
  Particle size: 93.07 ± 0.26 nm
[1]; [9]
  PDI: 0.12 ± 0.00
  Particle size: 88.12 ± 0.68 nm
[1]; [10]
  PDI: 0.47 ± 0.04
  Particle size: 232.87 ± 6.17 nm
[1]; [11]
  PDI: 0.13 ± 0.01
  Particle size: 79.38 ± 0.91 nm

## CCCCCCCCCCNC(=O)C(O)CN(C)CCN(C)CCN(C)CC(O)C(=O)NCCCCCCCCCC (stereo not drawn) [Compound L0277]
mice; [12]
  IVIS: 2.60 × 10^5
mice; [13]
  IVIS: 4.28 × 10^5
[1]; [14]
  PDI: 0.21 ± 0.00
  Particle size: 99.36 ± 2.16 nm

## CCCCCCOCOCCCCCCOC(=O)C(O)CN(C)CCN(C)CCN(C)CC(O)C(=O)OCCCCCCOCOCCCCCC (stereo not drawn) [Compound L0279]
mice; DMG-PEG2000:DSPC:Chol:Lipid 1.40:11.15:38.95:48.50, N/P 30, IM, whole body scan
  IVIS: 2.87 × 10^5
mice; DMG-PEG2000:DSPC:Chol:Lipid 1.40:11.15:38.95:48.50, N/P 30, IV, body (whole body scan)
  IVIS: 5.19 × 10^5
[1]; [15]
  PDI: 0.23 ± 0.02
  Particle size: 150.80 ± 1.97 nm

## CCCCCCOC(C)OCCCCCCOC(=O)C(O)CN(CCN(C)CCN(CC(O)C(=O)OCCCCCCOC(C)OCCCCCC)CC(O)C(=O)OCCCCCCOC(C)OCCCCCC)CC(O)C(=O)OCCCCCCOC(C)OCCCCCC (stereo not drawn) [Compound L0333]
mice; [16]
  IVIS: 1.70E+06
mice; [17]
  IVIS: 6.44E+08
mice; [18]
  % of organ targeting: 74.80%
mice; [19]
  IVIS: 1.29E+08
mice; [20]
  % of organ targeting: 4.15%
mice; [21]
  IVIS: 7.15E+06
mice; [22]
  % of organ targeting: 21.05%
mice; [23]
  IVIS: 3.63E+07
[1]; [24]
  PDI: 0.09
  Particle size (nm): 130.70 nm

## CCCCCCCC/C=C\CCCCCCCCNC(=O)C(O)CN(CCN(C)CCN(CC(O)C(=O)NCCCCCCCC/C=C\CCCCCCCC)CC(O)C(=O)NCCCCCCCC/C=C\CCCCCCCC)CC(O)C(=O)NCCCCCCCC/C=C\CCCCCCCC (stereo not drawn) [Compound L0299]
mice; [16]
  IVIS: 1.92E+06
mice; [17]
  IVIS: 1.55E+07
mice; [18]
  % of organ targeting: 7.28%
mice; [19]
  IVIS: 7.84E+05
mice; [20]
  % of organ targeting: 41.60%
mice; [21]
  IVIS: 4.48E+06
mice; [22]
  % of organ targeting: 51.12%
mice; [23]
  IVIS: 5.50E+06
[1]; [24]
  PDI: 0.16
  Particle size (nm): 91.76 nm

## CCCCCCCCCCCCNC(=O)C(O)CN(C)CCN(C)CCN(C)CC(O)C(=O)NCCCCCCCCCCCC (stereo not drawn) [Compound L0278]
mice; [12]
  IVIS: 3.77 × 10^5
mice; [13]
  IVIS: 2.49 × 10^5
[1]; [14]
  PDI: 0.23 ± 0.01
  Particle size: 91.75 ± 0.80 nm

## CCCCCCOCOCCCCCCOC(=O)C(O)CN(CCOCCN(CC(O)C(=O)OCCCCCCOCOCCCCCC)CC(O)C(=O)OCCCCCCOCOCCCCCC)CC(O)C(=O)OCCCCCCOCOCCCCCC (stereo not drawn) [Compound L0330]
mice; IM, DMG-PEG2000:DSPC:Chol:compound 1.40:11.15:38.95:48.50, N/P 20, Fluc-mRNA
  IVIS: 1.35E+06
mice; IV, body, DMG-PEG2000:DSPC:Chol:compound 1.40:11.15:38.95:48.50, N/P 20, Fluc-mRNA
  IVIS: 2.05E+06
mice; IV, liver, DMG-PEG2000:DSPC:Chol:compound 1.40:11.15:38.95:48.50, N/P 20
  % of organ targeting: 29.70%
mice; IV, liver, DMG-PEG2000:DSPC:Chol:compound 1.40:11.15:38.95:48.50, N/P 20, Fluc-mRNA
  IVIS: 2.90E+05
mice; IV, lung, DMG-PEG2000:DSPC:Chol:compound 1.40:11.15:38.95:48.50, N/P 20
  % of organ targeting: 4.48%
mice; IV, lung, DMG-PEG2000:DSPC:Chol:compound 1.40:11.15:38.95:48.50, N/P 20, Fluc-mRNA
  IVIS: 4.37E+04
mice; IV, spleen, DMG-PEG2000:DSPC:Chol:compound 1.40:11.15:38.95:48.50, N/P 20
  % of organ targeting: 65.82%
mice; IV, spleen, DMG-PEG2000:DSPC:Chol:compound 1.40:11.15:38.95:48.50, N/P 20, Fluc-mRNA
  IVIS: 6.43E+05
[1]; [25]
  PDI: 0.10
  Particle size (nm): 145.77 nm

## CCCCCCCCCCNC(=O)C(O)CN(CCCN(CC(O)C(=O)NCCCCCCCCCC)CC(O)C(=O)NCCCCCCCCCC)CCCN(CC(O)C(=O)NCCCCCCCCCC)CC(O)C(=O)NCCCCCCCCCC (stereo not drawn) [Compound L0268]
mice; DMG-PEG2000:DSPC:Chol:Lipid 1.40:11.15:38.95:48.50, N/P 60, IV, whole body scan
  IVIS: 3.80 × 10^5
mice; DMG-PEG2000:DSPC:Chol:Lipid 1.77:14.07:49.16:35.00, N/P 60, IM, whole body scan
  IVIS: 5.86 × 10^5
[1]; [26]
  PDI: 0.07 ± 0.01
  Particle size: 116.83 ± 1.07 nm
[1]; [27]
  PDI: 0.08 ± 0.01
  Particle size: 95.36 ± 0.61 nm

## CCCCCCCCCCCCNCC(O)CN(CCN(CCN(CC(O)CNCCCCCCCCCCCC)CC(O)C(=O)NCCCCCCCCCCCC)CC(O)C(=O)NCCCCCCCCCCCC)CC(O)C(=O)NCCCCCCCCCCCC (stereo not drawn) [Compound L0332]
mice; [16]
  IVIS: 7.75E+05
mice; IV, organ not given, DMG-PEG2000:DSPC:Chol:compound 1.40:11.15:38.95:48.50, N/P 30, Fluc-mRNA
  IVIS: 3.67E+05
[1]; [24]
  PDI: 0.18
  Particle size (nm): 150.70 nm
